These results are taken from patent US7601738B2, “Excitatory amino acid receptor antagonists” (Eli Lilly and Company, priority 2001, dated 2009).

As usually defined, the melting point is the temperature, or range, at which the solid turns liquid. For the molecule `Cl.O=C(O)c1cc2ccccc2cc1S[C@H]1CC[C@H]2CN[C@H](C(=O)O)C[C@H]2C1`, the melting point is > 183 °C (dec.).

Regarding `Cc1ccc(C(=O)O)c(S[C@H]2CC[C@H]3CN[C@H](C(=O)O)C[C@H]3C2)c1.Cl`, the melting point was > 177 °C (dec.).
